# Laboratory results from article PMC12527922, “Cocaine chemogenetics blunts drug-seeking by synthetic physiology” (Nature, 2025).
# pEC50: −log10 of the molar value. Several values for one entry are separate records, joined by “and”; a condition that tells them apart may be missing. Equal values may be shown once.
# Biological target: coca-5HT3 (α7(L141G,G175K,Y210F,Y217F)–5HT3) (Homo sapiens, UniProt P36544, G175K/L141G/Y210F/Y217F)
# Experiment: Membrane potential assay, coca-5HT3 in HEK293
# Settings: for Max normalized Response / Response: coca-5HT3; for Max normalized Response: ED Fig 3b
# [1] = membrane potential assay dose response
# [2] = coca5HT3, Choline Conc 1.37174 uM
# [3] = coca5HT3, Choline Conc 12.3457 uM
# [4] = coca5HT3, Choline Conc 37.037 uM
# [5] = coca5HT3, Choline Conc 111.111 uM
# [6] = coca5HT3, Choline Conc 333.333 uM
# coca-5HT3 (α7(L141G,G175K,Y210F,Y217F)–5HT3), sequence (P36544 23-224 L141G/G175K/Y210F/Y217F): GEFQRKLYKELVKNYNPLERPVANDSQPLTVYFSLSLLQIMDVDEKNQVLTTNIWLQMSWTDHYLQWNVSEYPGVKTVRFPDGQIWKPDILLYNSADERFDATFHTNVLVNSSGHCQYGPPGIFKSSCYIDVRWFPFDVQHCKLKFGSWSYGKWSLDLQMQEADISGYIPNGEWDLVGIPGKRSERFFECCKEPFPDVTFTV
# coca-5HT3 (α7(L141G,G175K,Y210F,Y217F)–5HT3), sequence (P23979 242-489, further chain): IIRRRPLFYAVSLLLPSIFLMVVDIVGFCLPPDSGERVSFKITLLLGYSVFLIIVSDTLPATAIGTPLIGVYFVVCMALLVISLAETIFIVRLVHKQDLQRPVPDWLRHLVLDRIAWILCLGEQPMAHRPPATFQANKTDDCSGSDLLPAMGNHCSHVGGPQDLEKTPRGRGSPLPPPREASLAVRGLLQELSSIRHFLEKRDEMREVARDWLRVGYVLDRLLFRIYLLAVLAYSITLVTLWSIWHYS
molecule,measurement,setting,value
CC[N+]1(C)[C@@H]2CC(OC(=O)[C@H](CO)c3ccccc3)C[C@H]1[C@@H]1O[C@@H]12 (stereo partly shown) [Oxitroprium],Max normalized Response,conc 0.137 uM,0.04923
same,Max normalized Response,conc 3.7 uM,0.04777
same,Max normalized Response,conc 11.1 uM,0.1339
same,Max normalized Response,conc 33.3 uM,0.03611
same,Max normalized Response,conc 100 uM,0.1339
CCCCC/C=C\C/C=C\C/C=C\C/C=C\CCCC(=O)NCCO [Anandamide],Response,"conc 0.457247 uM, ED Fig 3a",0.053
same,Response,"conc 1.37174 uM, ED Fig 3a",0.085
same,Response,"conc 12.3457 uM, ED Fig 3a",0.046
same,Response,"conc 37.037 uM, ED Fig 3a",0.011
same,Response,"conc 111.111 uM, ED Fig 3a",0.073
same,Response,"conc 333.333 uM, ED Fig 3a",0.021
same,Response,"conc 1000 uM, ED Fig 3a",0.149
CC(=O)Oc1ccc2c3c1O[C@H]1[C@@H](OC(C)=O)C=C[C@H]4[C@@H](C2)N(C)CC[C@@]341 [heroin],Response,"conc 0.0137 uM, ED Fig. 2c",0.058
same,Response,"conc 0.123 uM, ED Fig. 2c",0.046
same,Response,"conc 0.37 uM, ED Fig. 2c",0.054
same,Response,"conc 10 uM, ED Fig. 2c",0.109
same,Response,"conc 30 uM, ED Fig. 2c",0.105
same,activation of coca-5HT3,[1],did not activate
CCN(CC)CCOC(=O)c1ccc(N)cc1 [Procaine],Max normalized Response,conc 0.137 uM,0.07766
same,Max normalized Response,conc 3.7 uM,0.1325
same,Max normalized Response,conc 11.1 uM,0.1562
same,Max normalized Response,conc 33.3 uM,0.143
same,Max normalized Response,conc 100 uM,0.166
same,activation of coca-5HT3,up to 100 µM,did not activate
N[C@H](CO)C(=O)O [D-serine],Response,"conc 0.457247 uM, ED Fig 3a",0.104
same,Response,"conc 1.37174 uM, ED Fig 3a",0.061
same,Response,"conc 12.3457 uM, ED Fig 3a",0.037
same,Response,"conc 37.037 uM, ED Fig 3a",0.062
same,Response,"conc 111.111 uM, ED Fig 3a",0.111
same,Response,"conc 333.333 uM, ED Fig 3a",0.06
same,Response,"conc 1000 uM, ED Fig 3a",0.145
NCC(=O)O [Glycine],Response,"conc 0.457247 uM, ED Fig 3a",0.223
same,Response,"conc 1.37174 uM, ED Fig 3a",0.03
same,Response,"conc 12.3457 uM, ED Fig 3a",0.032
same,Response,"conc 37.037 uM, ED Fig 3a",0.042
same,Response,"conc 111.111 uM, ED Fig 3a",0.053
same,Response,"conc 333.333 uM, ED Fig 3a",0.108
same,Response,"conc 1000 uM, ED Fig 3a",0.232
COc1ccc2c3c1O[C@H]1C(=O)CC[C@@]4(O)[C@@H](C2)N(C)CC[C@]314 [oxycodone],Response,"conc 0.0137 uM, ED Fig. 2c",0.109
same,Response,"conc 0.123 uM, ED Fig. 2c",0.086
same,Response,"conc 0.37 uM, ED Fig. 2c",0.066
same,Response,"conc 10 uM, ED Fig. 2c",0.081
same,Response,"conc 30 uM, ED Fig. 2c",0.117
same,activation of coca-5HT3,[1],did not activate
CNC[C@H](O)c1ccc(O)c(O)c1 [Epinephrine],Response,"conc 0.457247 uM, ED Fig 3a",0.136
same,Response,"conc 1.37174 uM, ED Fig 3a",0.141
same,Response,"conc 12.3457 uM, ED Fig 3a",0.06
same,Response,"conc 37.037 uM, ED Fig 3a",0.029
same,Response,"conc 111.111 uM, ED Fig 3a",0.188
NCCc1c[nH]c2ccc(O)cc12 [Serotonin],Response,"conc 1.37174 uM, ED Fig 3a",0.295
same,Response,"conc 12.3457 uM, ED Fig 3a",0.101
same,Response,"conc 37.037 uM, ED Fig 3a",0.082
same,Response,"conc 111.111 uM, ED Fig 3a",0.115
same,Response,"conc 333.333 uM, ED Fig 3a",0.156
same,Response,"conc 1000 uM, ED Fig 3a",0.112
CC(N)Cc1ccccc1 (stereo not shown) [amphetamine],Response,"conc 0.0137 uM, ED Fig. 2c",0.05
same,Response,"conc 0.123 uM, ED Fig. 2c",0.058
same,Response,"conc 0.37 uM, ED Fig. 2c",0.049
same,Response,"conc 10 uM, ED Fig. 2c",0.028
same,Response,"conc 30 uM, ED Fig. 2c",0.055
same,activation of coca-5HT3,[1],did not activate
N[C@@H](CC(=O)O)C(=O)O [Aspartate],Response,"conc 0.457247 uM, ED Fig 3a",0.065
same,Response,"conc 1.37174 uM, ED Fig 3a",0.034
same,Response,"conc 12.3457 uM, ED Fig 3a",0.025
same,Response,"conc 37.037 uM, ED Fig 3a",0.074
same,Response,"conc 111.111 uM, ED Fig 3a",0.072
same,Response,"conc 333.333 uM, ED Fig 3a",0.088
same,Response,"conc 1000 uM, ED Fig 3a",0.232
CN1[C@H]2CC[C@@H]1[C@@H](C(=O)O)[C@@H](OC(=O)c1ccccc1)C2 [benzoyl ecgonine],Response,"conc 0.0137174 uM, ED Fig. 2b",0.07
same,Response,"conc 0.123457 uM, ED Fig. 2b",0.088
same,Response,"conc 0.37037 uM, ED Fig. 2b",0.072
same,Response,"conc 1.11111 uM, ED Fig. 2b",0.062
same,Response,"conc 3.33333 uM, ED Fig. 2b",0.097
same,Response,"conc 10 uM, ED Fig. 2b",0.074
same,Response,"conc 30 uM, ED Fig. 2b",0.088
same,activation of coca-5HT3,[1],not activated
CN1[C@@H]2CC[C@H]1C[C@@H](OC(=O)[C@H](CO)c1ccccc1)C2 [Hyoscyamine],Max normalized Response,conc 0.137 uM,0.1005
same,Max normalized Response,conc 3.7 uM,0.08466
same,Max normalized Response,conc 11.1 uM,0.09524
same,Max normalized Response,conc 33.3 uM,0.1217
same,Max normalized Response,conc 100 uM,0.01058
CN[C@@H](C)Cc1ccccc1 [methamphetamine],Response,"conc 0.0137 uM, ED Fig. 2c",0.198
same,Response,"conc 0.123 uM, ED Fig. 2c",0.256
same,Response,"conc 0.37 uM, ED Fig. 2c",0.136
same,Response,"conc 10 uM, ED Fig. 2c",0.224
same,Response,"conc 30 uM, ED Fig. 2c",0.204
same,activation of coca-5HT3,[1],did not activate
C[N+](C)(C)CCO [choline],EC50 relative to peak physiological levels,EC50 above peak physiological levels,about 100 fold
same,"Max normalized response, AVG",[2],0.0611
same,"Max normalized response, replicates",[2],0.1043 and 0.06655 and 0.04444 and 0.02913
same,"Response, dose-response replicates (DR 1-4)",[2],0.056 and 0.037 and 0.008 and 0.006
same,"Max normalized response, AVG",[3],0.06296
same,"Max normalized response, replicates",[3],0.05773 and 0.04496 and 0.02778 and 0.1214
same,"Response, dose-response replicates (DR 1-4)",[3],0.031 and 0.025 (2×) and 0.005
same,"Max normalized response, AVG",[4],0.0516
same,"Max normalized response, replicates",[4],0.04283 and 0.03237 and 0.07778 and 0.0534
same,"Response, dose-response replicates (DR 1-4)",[4],0.023 and 0.018 and 0.014 and 0.011
same,"Max normalized response, AVG",[5],0.04734
same,"Max normalized response, replicates",[5],0.03724 and 0.04317 and 0.05556 and 0.0534
same,"Response, dose-response replicates (DR 1-4)",[5],0.02 and 0.024 and 0.01 and 0.011
same,"Max normalized response, AVG",[6],0.07674
same,"Max normalized response, replicates",[6],0.0838 and 0.08993 and 0.05556 and 0.07767
same,"Response, dose-response replicates (DR 1-4)",[6],0.045 and 0.05 and 0.01 and 0.016
same,"Max normalized response, AVG","coca5HT3, Choline Conc 1000 uM",0.4005
same,"Max normalized response, replicates","coca5HT3, Choline Conc 1000 uM",0.4022 and 0.5288 and 0.3556 and 0.3155
same,"Response, dose-response replicates (DR 1-4)","coca5HT3, Choline Conc 1000 uM",0.216 and 0.294 and 0.064 and 0.065
same,"Max normalized response, AVG","coca5HT3, Choline Conc 3000 uM",1
same,"Max normalized response, replicates","coca5HT3, Choline Conc 3000 uM",1
same,"Response, dose-response replicates (DR 1-4)","coca5HT3, Choline Conc 3000 uM",0.537 and 0.556 and 0.18 and 0.206
same,max response of each dose-response replicate,"coca5HT3, Choline, used for normalization",0.537 and 0.556 and 0.18 and 0.206
same,pEC50,"half-maximum effective concentration (EC50), HEK293, fluorescence membrane potential assay",2.92
CCN(CC)CC(=O)Nc1c(C)cccc1C [Lidocaine],Max normalized Response,conc 0.137 uM,0.1106
same,Max normalized Response,conc 3.7 uM,0.1119
same,Max normalized Response,conc 11.1 uM,0.1369
same,Max normalized Response,conc 33.3 uM,0.1879
same,Max normalized Response,conc 100 uM,0.1519
same,activation of coca-5HT3,up to 100 µM,did not activate
C[N+]1(C)[C@@H]2C[C@@H](OC(=O)C(O)(c3cccs3)c3cccs3)C[C@H]1[C@@H]1O[C@@H]12 [Tiotropium],Max normalized Response,conc 0.137 uM,0.05284
same,Max normalized Response,conc 3.7 uM,0.03225
same,Max normalized Response,conc 11.1 uM,0.04379
same,Max normalized Response,conc 33.3 uM,0.159
same,Max normalized Response,conc 100 uM,0.2432
NCCc1ccc(O)c(O)c1 [Dopamine],Response,"conc 0.457247 uM, ED Fig 3a",0.119
same,Response,"conc 1.37174 uM, ED Fig 3a",0.062
same,Response,"conc 12.3457 uM, ED Fig 3a",0.04
same,Response,"conc 37.037 uM, ED Fig 3a",0.017
same,Response,"conc 111.111 uM, ED Fig 3a",0.052
same,Response,"conc 333.333 uM, ED Fig 3a",0.039
same,Response,"conc 1000 uM, ED Fig 3a",0.106
NCCCC(=O)O [GABA],Response,"conc 0.457247 uM, ED Fig 3a",0.157
same,Response,"conc 1.37174 uM, ED Fig 3a",0.099
same,Response,"conc 12.3457 uM, ED Fig 3a",0.041
same,Response,"conc 37.037 uM, ED Fig 3a",0.055
same,Response,"conc 111.111 uM, ED Fig 3a",0.023
same,Response,"conc 333.333 uM, ED Fig 3a",0.05
same,Response,"conc 1000 uM, ED Fig 3a",0.066
C[N+]1(C)[C@@H]2C[C@@H](OC(=O)[C@H](CO)c3ccccc3)C[C@H]1[C@@H]1O[C@@H]12 [Methscopolamine],Max normalized Response,conc 0.137 uM,0.01611
same,Max normalized Response,conc 3.7 uM,0.08959
same,Max normalized Response,conc 11.1 uM,0.03432
same,Max normalized Response,conc 33.3 uM,0.1141
same,Max normalized Response,conc 100 uM,0.3973
CN1[C@@H]2C[C@@H](OC(=O)[C@H](CO)c3ccccc3)C[C@H]1[C@@H]1O[C@@H]12 [Scopolamine],Max normalized Response,conc 0.137 uM,0.06195
same,Max normalized Response,conc 3.7 uM,0.06448
same,Max normalized Response,conc 11.1 uM,0.04953
same,Max normalized Response,conc 33.3 uM,0.06371
same,Max normalized Response,conc 100 uM,0.0598
ecgonine,Response,"conc 0.0137174 uM, ED Fig. 2b",0.052
same,Response,"conc 0.123457 uM, ED Fig. 2b",0.065
same,Response,"conc 0.37037 uM, ED Fig. 2b",0.073
same,Response,"conc 1.11111 uM, ED Fig. 2b",0.07
same,Response,"conc 3.33333 uM, ED Fig. 2b",0.053
same,Response,"conc 10 uM, ED Fig. 2b",0.084
same,Response,"conc 30 uM, ED Fig. 2b",0.084
same,activation of coca-5HT3,[1],not activated
